Data taken from US10759783B2, “Biaryl inhibitors of Bruton'S tyrosine kinase” (BIOGEN MA INC., priority 2013, dated 2020).

Columns and labels:
BTK enzyme = target: T1, BTK enzyme (Homo sapiens, UniProt Q06187); test: In vitro BTK kinase assay: BTK-POLYGAT-LS assay; type: biochemical; conditions: ATP 10 μM, read-out: IC50 (10uMATP)
T1 construct: purchased Upstate 14-552
Outline: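 Human BTK activity was measured with final 10 μM ATP and 100 nM polyGAT substrate in pH 7.5 Tris buffer with 10 mM MgCl2, DTT, Triton X-100 and casein.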

[1] = target: BTK (phospho-BTK) in human whole blood (Homo sapiens, UniProt Q06187); test: In vitro PD assay in human whole blood (pBTK assay)
Chain of BTK (phospho-BTK) in human whole blood (Q06187 whole entry): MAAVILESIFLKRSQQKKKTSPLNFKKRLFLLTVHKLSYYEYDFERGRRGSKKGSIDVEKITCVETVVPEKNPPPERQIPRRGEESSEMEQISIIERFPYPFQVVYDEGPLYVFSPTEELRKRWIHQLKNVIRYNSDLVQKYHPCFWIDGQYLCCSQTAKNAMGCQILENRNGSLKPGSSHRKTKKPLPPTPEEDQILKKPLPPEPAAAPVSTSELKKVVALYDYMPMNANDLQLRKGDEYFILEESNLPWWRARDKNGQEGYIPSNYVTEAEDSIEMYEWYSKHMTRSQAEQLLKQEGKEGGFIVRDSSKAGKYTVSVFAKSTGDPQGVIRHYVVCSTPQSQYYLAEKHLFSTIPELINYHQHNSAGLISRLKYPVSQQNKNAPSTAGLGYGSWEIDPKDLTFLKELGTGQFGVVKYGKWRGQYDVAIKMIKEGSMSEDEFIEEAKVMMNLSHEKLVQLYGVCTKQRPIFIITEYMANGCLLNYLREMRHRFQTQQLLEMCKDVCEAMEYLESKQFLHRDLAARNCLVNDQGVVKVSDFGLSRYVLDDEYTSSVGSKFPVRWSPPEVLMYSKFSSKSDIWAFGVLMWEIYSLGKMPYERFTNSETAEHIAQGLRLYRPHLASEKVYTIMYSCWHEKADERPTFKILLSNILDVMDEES

T1 sequence (Q06187 whole entry): as above

IC50 (BTK enzyme) [nM]	IC50 [1] [nM]	SMILES
< 10	< 500	Cc1cc(-c2ccnc(Nc3cnn(C[C@H]4CNCCO4)c3)n2)ccc1CNC(=O)c1cnc(C(C)(C)C)s1 [Example I-128, (R)-2-(tert-butyl)-N-(2-methyl-4-(2-((1-(morpholin-2-ylmethyl)-1H-pyrazol-4-yl)amino)pyrimidin-4-yl)benzyl)thiazole-5-carboxamide]
< 10	500 to 1500	Cc1cc(-c2ccnc(Nc3cnn(C[C@@H](O)CN)c3)n2)ccc1CNC(=O)c1cnc(C(C)(C)C)s1 [Example I-129, (S)—N-(4-(2-((1-(3-amino-2-hydroxypropyl)-1H-pyrazol-4-yl)amino)pyrimidin-4-yl)-2-methylbenzyl)-2-(tert-butyl)thiazole-5-carboxamide]
< 10	< 500	Cc1cc(-c2ccnc(Nc3cnn(C[C@H](N)C(=O)O)c3)n2)ccc1CNC(=O)c1cnc(C(C)(C)C)s1 [Example I-130, (S)-2-amino-3-(4-((4-(4-((2-(tert-butyl)thiazole-5-carboxamido)methyl)-3-methylphenyl)pyrimidin-2-yl)amino)-1H-pyrazol-1-yl)propanoic acid]
< 10	500 to 1500	Cc1cc(-c2ccnc(Nc3cnn(C[C@H](N)CO)c3)n2)ccc1CNC(=O)c1cnc(C(C)(C)C)s1 [Example I-131, (S)—N-(4-(2-((1-(2-amino-3-hydroxypropyl)-1H-pyrazol-4-yl)amino)pyrimidin-4-yl)-2-methylbenzyl)-2-(tert-butyl)thiazole-5-carboxamide]
< 10	1500 to 10000	Cc1cc(-c2ccnc(Nc3cnn(C[C@@H](N)C(=O)O)c3)n2)ccc1CNC(=O)c1cnc(C(C)(C)C)s1 [Example I-132, (R)-2-amino-3-(4-((4-(4-((2-(tert-butyl)thiazole-5-carboxamido)methyl)-3-methylphenyl)pyrimidin-2-yl)amino)-1H-pyrazol-1-yl)propanoic acid]
< 10	1500 to 10000	Cc1cc(-c2ccnc(N)n2)ccc1CNC(=O)c1cnc(C(C)(C)C)s1 [Example I-135, N-(4-(2-aminopyrimidin-4-yl)-2-methylbenzyl)-2-(tert-butyl)thiazole-5-carboxamide]
< 10	1500 to 10000	Cc1cc(-c2ccnc(N)n2)ccc1CNC(=O)c1cc2c(s1)CCCC2 [Example I-142, N-(4-(2-aminopyrimidin-4-yl)-2-methylbenzyl)-4,5,6,7-tetrahydrobenzo[b]thiophene-2-carboxamide]
< 10	< 500	CCn1cc(Nc2nccc(-c3ccc4c(c3)CCCCC4NC(=O)N3CC(OC(C)C)C3)n2)cn1 (stereo not shown) [Example I-166, N-(2-(2-((1-ethyl-1H-pyrazol-4-yl)amino)pyrimidin-4-yl)-6,7,8,9-tetrahydro-5H-benzo[7]annulen-5-yl)-3-isopropoxyazetidine-1-carboxamide]
< 10	< 500	CC(C)OC1CN(C(=O)NC2CCCCc3cc(-c4ccnc(Nc5cnn(C(C)C)c5)n4)ccc32)C1 (stereo not shown) [Example I-167, 3-isopropoxy-N-(2-(2-((1-isopropyl-1H-pyrazol-4-yl)amino)pyrimidin-4-yl)-6,7,8,9-tetrahydro-5H-benzo[7]annulen-5-yl)azetidine-1-carboxamide]
< 10	< 500	CC(C)OC1CN(C(=O)NC2CCCCc3cc(-c4ccnc(Nc5cnn(CCO)c5)n4)ccc32)C1 (stereo not shown) [Example I-168, N-(2-(2-((1-(2-hydroxyethyl)-1H-pyrazol-4-yl)amino)pyrimidin-4-yl)-6,7,8,9-tetrahydro-5H-benzo[7]annulen-5-yl)-3-isopropoxyazetidine-1-carboxamide]
< 10	< 500	CC(C)OC1CN(C(=O)N[C@@H]2CCCCc3cc(-c4ccnc(Nc5cnn(CCO)c5)n4)ccc32)C1 [Example I-169, (R)—N-(2-(2-((1-(2-hydroxyethyl)-1H-pyrazol-4-yl)amino)pyrimidin-4-yl)-6,7,8,9-tetrahydro-5H-benzo[7]annulen-5-yl)-3-isopropoxyazetidine-1-carboxamide]
< 10	< 500	COCCn1cc(Nc2nccc(-c3ccc4c(c3)CCCCC4NC(=O)N3CC(OC(C)C)C3)n2)cn1 (stereo not shown) [Example I-171, 3-isopropoxy-N-(2-(2-((1-(2-methoxyethyl)-1H-pyrazol-4-yl)amino)pyrimidin-4-yl)-6,7,8,9-tetrahydro-5H-benzo[7]annulen-5-yl)azetidine-1-carboxamide]
< 10	< 500	CC(C)OC1CN(C(=O)NC2CCCCc3cc(-c4ccnc(Nc5cnn(C6CCOCC6)c5)n4)ccc32)C1 (stereo not shown) [Example I-172, 3-isopropoxy-N-(2-(2-((1-(tetrahydro-2H-pyran-4-yl)-1H-pyrazol-4-yl)amino)pyrimidin-4-yl)-6,7,8,9-tetrahydro-5H-benzo[7]annulen-5-yl)azetidine-1-carboxamide]

More lines, now with the values behind:

SMILES	IC50 (BTK enzyme) [nM]	IC50 [1] [nM]
Cc1cc(-c2ccnc(Nc3cnn([C@H]4CCNC4)c3)n2)ccc1CNC(=O)c1cnc(C(C)(C)C)s1 [Example I-124, (S)-2-(tert-butyl)-N-(2-methyl-4-(2-((1-(pyrrolidin-3-yl)-1H-pyrazol-4-yl)amino)pyrimidin-4-yl)benzyl)thiazole-5-carboxamide]	< 10	< 500
Cc1cc(-c2ccnc(Nc3cnn([C@H]4CCN(C)C4)c3)n2)ccc1CNC(=O)c1cnc(C(C)(C)C)s1 [Example I-125, (S)-2-(tert-butyl)-N-(2-methyl-4-(2-((1-(1-methylpyrrolidin-3-yl)-1H-pyrazol-4-yl)amino)pyrimidin-4-yl)benzyl)thiazole-5-carboxamide]	< 10	< 500
Cc1cc(-c2ccnc(Nc3cnn(C[C@@H]4CNCCO4)c3)n2)ccc1CNC(=O)c1cnc(C(C)(C)C)s1 [Example I-126, (S)-2-(tert-butyl)-N-(2-methyl-4-(2-((1-(morpholin-2-ylmethyl)-1H-pyrazol-4-yl)amino)pyrimidin-4-yl)benzyl)thiazole-5-carboxamide]	< 10	< 500
Cc1cc(-c2ccnc(Nc3cnn(C[C@H](O)CN)c3)n2)ccc1CNC(=O)c1cnc(C(C)(C)C)s1 [Example I-127, (R)—N-(4-(2-((1-(3-amino-2-hydroxypropyl)-1H-pyrazol-4-yl)amino)pyrimidin-4-yl)-2-methylbenzyl)-2-(tert-butyl)thiazole-5-carboxamide]	< 10	500 to 1500
Cn1cc(Nc2nccc(-c3ccc4c(c3)CCCCC4NC(=O)N3CC(OC(C)(C)C)C3)n2)cn1 (stereo not shown) [Example I-163, 3-(tert-butoxy)-N-(2-(2-((1-methyl-H-pyrazol-4-yl)amino)pyrimidin-4-yl)-6,7,8,9-tetrahydro-5H-benzo[7]annulen-5-yl)azetidine-1-carboxamide]	< 10	< 500
Cn1cc(Nc2nccc(-c3ccc4c(c3)CCCC[C@H]4NC(=O)N3CC(OC(C)(C)C)C3)n2)cn1 [Example I-164, (R)-3-(tert-butoxy)-N-(2-(2-((1-methyl-1H-pyrazol-4-yl)amino)pyrimidin-4-yl)-6,7,8,9-tetrahydro-5H-benzo[7]annulen-5-yl)azetidine-1-carboxamide]	< 10	< 500
CCn1cc(Nc2nccc(-c3ccc4c(c3)CCCCC4NC(=O)N3CC(OC(C)(C)C)C3)n2)cn1 (stereo not shown) [Example I-173, 3-(tert-butoxy)-N-(2-(2-((1-ethyl-1H-pyrazol-4-yl)amino)pyrimidin-4-yl)-6,7,8,9-tetrahydro-5H-benzo[7]annulen-5-yl)azetidine-1-carboxamide]	< 10	< 500
CC(C)n1cc(Nc2nccc(-c3ccc4c(c3)CCCCC4NC(=O)N3CC(OC(C)(C)C)C3)n2)cn1 (stereo not shown) [Example I-174, 3-(tert-butoxy)-N-(2-(2-((1-isopropyl-1H-pyrazol-4-yl)amino)pyrimidin-4-yl)-6,7,8,9-tetrahydro-5H-benzo[7]annulen-5-yl)azetidine-1-carboxamide]	< 10	< 500
COCCn1cc(Nc2nccc(-c3ccc4c(c3)CCCCC4NC(=O)N3CC(OC(C)(C)C)C3)n2)cn1 (stereo not shown) [Example I-175, 3-(tert-butoxy)-N-(2-(2-((1-(2-methoxyethyl)-1H-pyrazol-4-yl)amino)pyrimidin-4-yl)-6,7,8,9-tetrahydro-5H-benzo[7]annulen-5-yl)azetidine-1-carboxamide]	< 10	< 500
COCCn1cc(Nc2nccc(-c3ccc4c(c3)CCCC[C@H]4NC(=O)N3CC(OC(C)(C)C)C3)n2)cn1 [Example I-176, (R)-3-(tert-butoxy)-N-(2-(2-((1-(2-methoxyethyl)-1H-pyrazol-4-yl)amino)pyrimidin-4-yl)-6,7,8,9-tetrahydro-5H-benzo[7]annulen-5-yl)azetidine-1-carboxamide]	< 10	< 500
CC(C)(C)OC1CN(C(=O)NC2CCCCc3cc(-c4ccnc(Nc5cnn(CCO)c5)n4)ccc32)C1 (stereo not shown) [Example I-178, 3-(tert-butoxy)-N-(2-(2-((1-(2-hydroxyethyl)-1H-pyrazol-4-yl)amino)pyrimidin-4-yl)-6,7,8,9-tetrahydro-5H-benzo[7]annulen-5-yl)azetidine-1-carboxamide]	< 10	< 500
CC(C)(C)OC1CN(C(=O)NC2CCCCc3cc(-c4ccnc(Nc5cnn(C6CCOCC6)c5)n4)ccc32)C1 (stereo not shown) [Example I-179, 3-(tert-butoxy)-N-(2-(2-((1-(tetrahydro-2H-pyran-4-yl)-1H-pyrazol-4-yl)amino)pyrimidin-4-yl)-6,7,8,9-tetrahydro-5H-benzo[7]annulen-5-yl)azetidine-1-carboxamide]	< 10	< 500
CN1CCC(n2cc(Nc3nccc(-c4ccc5c(c4)CCCCC5NC(=O)N4CC(OC(C)(C)C)C4)n3)cn2)CC1 (stereo not shown) [Example I-180, 3-(tert-butoxy)-N-(2-(2-((1-(1-methylpiperidin-4-yl)-1H-pyrazol-4-yl)amino)pyrimidin-4-yl)-6,7,8,9-tetrahydro-5H-benzo[7]annulen-5-yl)azetidine-1-carboxamide]	< 10	< 500
